Laboratory results from patent US20020156112A1, “Endostatin-like angiogenesis inhibition” (priority 2000, published 2002).

Tests used:
Type in all cases: binding
[1] = system: RGD-endostatin interaction; test: Colloid colour-change drug screen for endostatin mimics via RGD/endostatin interaction (Example 8); conditions: 5 μL candidate drug at 2.9 mg/ml in DMSO; 4.75 ul of 0.1 mg/mL endostatin; room temperature, about 20 minutes
Description: In yet another aspect of the invention, a high throughput drug screening assay is described that identifies endostatin mimics is described. Histidine-tagged peptides containing two tandem GRGDS motifs are immobilized, from a phosphate buffered saline solution, onto gold nanoparticles (called colloids) that have been derivatized with NTA-Ni-SAMs that capture histidine-tagged species. Endostatin, which is a dimer in its functional form, is added to the colloidal solution. Dimeric endostatin presents two binding sites that recognize GRGDS motif peptides. The binding of dimeric endostatin to two peptides attached to two different colloids, draws the colloids close together and causes the color of the gold colloid solution to change from pink to blue. Recall that colloidal gold appears pink when the particles are dispersed in a homogeneous solution, but the solution turns blue when the particles are aggregated, see FIG. 5. Drug candidates are added to the colloid-immobilized GRGDS motif peptides and endostatin solution. When a drug candidate effectively interrupts the endostatin—GRGDS motif peptide interaction, the solution remains pink. Recall that the drug candidates are monomeric and therefore, even if they bind to the GRGDS peptides, they cannot bring two colloids together, which would cause the solution color to change from the inherent pink, to blue, see FIG. 7.
60 uM NTA colloids presenting a His-tagged peptide containing […] RGD motifs (GRGDSGRGDS) were prepared by incubating 1 mL of colloids with 200 ul 100 uM His-RGD for ten minutes, pelleting the colloids to remove excess unbound peptide, and resuspending the colloids in PBS. Negative control colloids were prepared by substituting a random His-tagged peptide in place of the RGD peptide. 30 μL RGD-colloids (or random peptide-colloids for negative controls) were added to each well of a 96-well plate along with 60 ul PBS per well. 5 μL of a candidate drug at 2.9 mg/ml in DMSO was added to each well of the plate. Candidate drugs including L-histidine, D-cycloserine, quisqualic acid and suramin were assessed. (See FIGS. 1-4). DMSO was added in place of a drug to each of the positive and negative controls. 4.75 ul of 0.1 mg/mL endostatin was added to each well. The plate was incubated at room temperature and observed for color change. After about 20 minutes, the positive controls changed color from pink to blue as the endostatin bound to the RGD peptide. […] Drugs identified in this manner that bound to the RGD motif and inhibited binding of endostatin may be endostatin mimics and could be used as synthetic replacements of endostatin.

[2] = Biotin-streptavidin interaction, control colloids (Example 1); conditions: same streptavidin concentrations; wells B1-B7
Description: (§1) Gold colloids were prepared using a mixture of 10 μM biotin thiol, 10 μM NTA thiol, and 580 μM C11 thiol. Control colloids were prepared using 20 μM NTA thiol and 580 μM C11 thiol for a total thiol concentration of 600 μM. After deposition, the colloids were heat cycled in 400 μM EG3 thiol, and charged with nickel sulfate. A streptavidin stock solution (1 mg/mL) was prepared in 10 mM sodium phosphate buffer, 100 mM sodium chloride, pH 7.4 (buffer) To detect the biotin-streptavidin interaction, 60 μL buffer, 10 μL streptavidin, and 30 μL colloids, were mixed in a well of a 96-well plate. The plate was incubated at room temperature and observed for color change. At the three highest concentrations of streptavidin (0.1 mg/mL, 0.01 mg/mL, 0.001 mg/mL) the colloids presenting biotin turned blue (wells A1, A2, A3, FIG. 5). At lower concentrations of streptavidin, the wells containing biotin colloids remained pink (wells A4, A5, A6, A7). A similar experiment was performed using colloids presenting only the NTA group (wells B1-B7).
(§2) FIG. 5 is a digital photo of a colorimetric nanoparticle experiment in which gold colloids were derivatized with either biotin-SAMs (top row) or NTA-Ni-SAMs (bottom row). Streptavidin which has four binding sites for biotin, and thus will cross-link biotin-presenting colloids, was added free in solution. […]

[3] = Biotin-streptavidin interaction with gold colloids (Example 1)
Description: as §1, §2

[4] = target: T1, endostatin—GRGDS interaction (Homo sapiens, UniProt P39060); test: Vitronectin competition in gold colloid colour-change assay (Example 6)
T1 construct: purchased Calbiochem 324746
T1 sequence (P39060 1572-1754 limits assumed): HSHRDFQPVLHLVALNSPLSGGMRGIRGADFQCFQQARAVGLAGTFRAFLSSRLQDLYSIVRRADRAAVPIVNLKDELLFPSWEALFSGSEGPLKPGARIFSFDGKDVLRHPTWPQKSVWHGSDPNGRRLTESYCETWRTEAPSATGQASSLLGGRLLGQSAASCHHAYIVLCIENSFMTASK
Description: 40 μM NTA gold colloids were prepared which presented the His-tagged RGD peptide (Sequence ID No.1, see Table 1). These colloids were mixed with endostatin (0.1 mg /mL) and turned blue, indicating binding of endostatin to the GRGDS peptide (A1, A2, FIG. 6). Control colloids presenting an irrelevant FLR-peptide (Sequence ID #2, see table 1) remained pink (wells A3, A4). At the highest concentration of vitronectin (0.1 mg /ml), the endostatin—GRGDS interaction is disrupted, and the well remains pink (B1). At lower concentrations of vitronectin, the endostatin—GRDS interaction is not affected and the wells turn blue (B2-B5).

N[C@@H]1CONC1=O [D-cycloserine]
disruption of RGD-endostatin interaction (well remains pink) [1]: disrupted the RGD-endostatin interaction

N[C@@H](Cc1c[nH]cn1)C(=O)O [L-histidine]
disruption of RGD-endostatin interaction (well remains pink) [1]: disrupted the RGD-endostatin interaction

N[C@@H](Cn1oc(=O)[nH]c1=O)C(=O)O [quisqualic acid]
disruption of RGD-endostatin interaction (well remains pink) [1]: disrupted the RGD-endostatin interaction

Cc1ccc(C(=O)Nc2ccc(S(=O)(=O)O)c3cc(S(=O)(=O)O)cc(S(=O)(=O)O)c23)cc1NC(=O)c1cccc(NC(=O)Nc2cccc(C(=O)Nc3cc(C(=O)Nc4ccc(S(=O)(=O)O)c5cc(S(=O)(=O)O)cc(S(=O)(=O)O)c45)ccc3C)c2)c1 [suramin]
disruption of RGD-endostatin interaction (well remains pink) [1]: disrupted the RGD-endostatin interaction

streptavidin: Streptavidin which has four binding sites for biotin, added free in solution
colour of NTA-only control colloids [2]: remained pink
colour of biotin colloids ([3]; lower concentrations of streptavidin, wells A4-A7): remained pink
colour of biotin colloids ([3]; three highest concentrations of streptavidin (0.1 mg/mL, 0.01 mg/mL, 0.001 mg/mL), wells A1-A3): turned blue

vitronectin: full-length vitronectin, a cell adhesion molecule containing the GRGDS motif
effect on endostatin—GRGDS interaction ([4]; highest concentration of vitronectin (0.1 mg/ml), well B1): disrupted
effect on endostatin—GRGDS interaction ([4]; lower concentrations of vitronectin, wells B2-B5): not affected
